Earlier results in patent US20100035755A1, “METHOD OF CONTROLLING WEEDS IN A TURF GRASS BY USING SULFONYLUREA COMPOUNDS” (Moghu Research Center Ltd., priority 2008, published 2010).
Where two headings read alike, the source gives them in different places.

Assays:
warm season turf grass = conditions: cited from earlier work
cool season turf grass = conditions: cited from earlier work
Poa annua = conditions: background statement on existing herbicides; cited from earlier work
[1] = background statement, zoysiagrass, Burmudagrass
[2] = background statement, creeping bentgrass, Kentucky bluegrass

| SMILES | safety to warm season turf grass (warm season turf grass; [1]) | safety to cool season turf grass (cool season turf grass; [2]) | controlling Poa annua (Poa annua) | safety to warm season turf grass (warm season turf grass; in vivo) | safety to cool season turf grass (cool season turf grass; in vivo) |
| --- | --- | --- | --- | --- | --- |
| COc1cc(OC)nc(NC(=O)NS(=O)(=O)c2ncccc2OCC(F)(F)F)n1 [R. 2, Trifloxysulfuron] | have a safety | no safety |  |  |  |
| COC(=O)c1c(Cl)nn(C)c1S(=O)(=O)NC(=O)Nc1nc(OC)cc(OC)n1 [R. 3, Halosulfuron-methyl] | safe | safe | ineffective |  |  |
| COc1cc(OC)nc(NC(=O)NS(=O)(=O)Nc2ccccc2C(=O)C2CC2)n1 [R. 4, Cyclosulfamuron] |  |  | ineffective | safe | safe |
